Measured values published in US20230321089A1, “COMBINATION OF CABOTEGRAVIR AND LEVONORGESTREL” (ViiV Healthcare Company, priority 2020, published 2023).

Columns and labels:
HIV-1 strains = conditions: broad range of HIV-1 strains; cited from earlier work
[1] = parameters: species or system male Sprague Dawley rats; conditions: rat, in vivo
Procedure: To prepare the combination product, LNG and LNG-b suspensions were added to Cabotegravir suspensions at 500 mg/mL to achieve a final Cabotegravir concentration of approximately 200 mg/mL and a final LNG and LNGb concentration of […], using a solution of 2.0% Mannitol in water to adjust the final concentrations to target. Concentrations of P338 and PEG3350 were at 4.5%. The resulting suspensions were flushed with nitrogen, stoppered (FM457 stopper), and sealed. The suspensions were terminally sterilized by gamma irradiation at a minimum dose of 25 kGy.
The pharmacokinetics of co-suspensions of Cabotegravir and LNG/LNG-b, prepared as described above, were evaluated in male Sprague Dawley rats. The formulations that were tested included: • i. 200 mg/mL Cabotegravir and 40 mg/mL LNG—0.2 microns • ii. 200 mg/mL Cabotegravir 40 mg/mL LNG—1 micron • iii. 200 mg/mL Cabotegravir and 40 mg/mL LNGb—0.2 microns • iv. 200 mg/mL Cabotegravir 40 mg/mL LNGb—1 micron
Rats were administered co-suspensions either intramuscularly or subcutaneously at target doses of 10 mg/kg Cabotegravir and […] LNG or LNGb. […] FIG. 2 is a comparison of Levonorgestrel blood concentration pharmacokinetic profiles after intramuscular vs. subcutaneous administration. The average particle size of LNG for these formulations was 0.2 microns in diameter. […] Furthermore, FIG. 3 is a comparison of LNG and LNG-b co-formulated with Cab.

Structure (SMILES): C[C@H]1CO[C@@H]2Cn3cc(C(=O)NCc4ccc(F)cc4F)c(=O)c(O)c3C(=O)N12 [Cabotegravir, N-((2,4-Difluorophenyl)methyl)-6-hydroxy-3-methyl-5,7-dioxo-2,3,5,7,11,11a hexahydro(1,3)oxazolo(3,2-a)pyrido(1,2-d)pyrazine-8-carboxamide]
- potency (HIV-1 strains): subnanomolar

Structure (SMILES): C#C[C@]1(OC(=O)CCC)CC[C@H]2[C@@H]3CCC4=CC(=O)CC[C@@H]4[C@H]3CC[C@@]21CC [LNGb, Levonorgestrel-butanoate]
- Cmax compared with LNG ([1]; sc): lower
- apparent half-life compared with LNG ([1]; sc): slightly longer

Structure (SMILES): C#C[C@]1(O)CC[C@H]2[C@@H]3CCC4=CC(=O)CC[C@@H]4[C@H]3CC[C@@]21CC [LNG, Levonorgestrel]
- Levonorgestrel blood concentration pharmacokinetic profile: intramuscular vs. subcutaneous administration [1]: does not appear to be a significant impact
